Results published in patent US20180305332A1, “Bispiperidinyl Derivatives as Liver X Receptor Beta Agonists, Compositions, and Their Use” (Merck Sharp & Dohme Corp., priority 2015, published 2018).

Tests used:
[1] = molecular target: T1, GST tagged LXRbeta LBD (ligand binding domain) (Homo sapiens, UniProt P55055); assay: LanthaScreen TR-FRET Liver X Receptor Coactivator Assay, LXR beta-LBD; format: biochemical; settings: relative to reference T0901317; for EC50: Inflection Point (potency), co-activator recruitment, read-out: LXR beta IP; for Emax: activity at max dose (efficacy), read-out: LXR beta act @ max dose (%)
T1 construct: purchased Invitrogen pv4658.pps
T1 sequence (P55055 222-460 limits assumed): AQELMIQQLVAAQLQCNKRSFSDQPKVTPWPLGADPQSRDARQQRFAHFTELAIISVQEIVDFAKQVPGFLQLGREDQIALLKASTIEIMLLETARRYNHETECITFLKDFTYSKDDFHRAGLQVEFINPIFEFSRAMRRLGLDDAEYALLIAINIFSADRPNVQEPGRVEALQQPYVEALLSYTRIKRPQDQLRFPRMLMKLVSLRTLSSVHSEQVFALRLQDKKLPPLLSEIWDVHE
Summary of the method: (§1)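 Coactivator-recruitment TR-FRET format: GST-LBD, fluorescein-labelled coactivator peptide, Tb-conjugated anti-GST antibody, incubated at RT. Potency and efficacy scaled to T0901317.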

[2] = molecular target: T2, GST tagged LXRalpha LBD (ligand binding domain) (Homo sapiens, UniProt Q13133); assay: LanthaScreen TR-FRET Liver X Receptor Coactivator Assay, LXR alpha-LBD; format: biochemical; settings: relative to reference T0901317; for EC50: Inflection Point (potency), co-activator recruitment, read-out: LXR alpha IP; for Emax: activity at max dose (efficacy), read-out: LXR alpha act @ max dose (%)
T2 construct: purchased Invitrogen pv4655
T2 sequence (Q13133 209-447 limits assumed): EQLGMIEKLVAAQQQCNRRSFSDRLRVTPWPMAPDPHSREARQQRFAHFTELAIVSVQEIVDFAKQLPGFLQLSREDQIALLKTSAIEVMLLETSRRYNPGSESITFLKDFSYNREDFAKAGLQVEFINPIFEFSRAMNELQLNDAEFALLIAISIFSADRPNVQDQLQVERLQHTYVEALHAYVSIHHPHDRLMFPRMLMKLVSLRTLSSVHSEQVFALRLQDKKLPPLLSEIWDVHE
Summary of the method: as §1

| SMILES | EC50 [1] [nM] | Emax [1] [%] | EC50 [2] [nM] | Emax [2] [%] |
| --- | --- | --- | --- | --- |
| CN(C)C(=O)c1ccc(N2CCC(C3CCN(C(=O)C4(c5ccccc5F)CCC4)CC3)CC2)cc1Cl [Example A-73, 2-chloro-4-(1′-{[1-(2-fluorophenyl)cyclobutyl]carbonyl}-4,4′-bipiperidin-1-yl)-N,N-dimethylbenzamide] | 30 | 113 | 1020 | 61 |
| CN(C)S(=O)(=O)c1ccc(N2CCC(C3CCN(C(=O)[C@](O)(c4ccccc4)C(F)(F)F)CC3)CC2)cc1Cl [Example D-4, 2-chloro-N,N-dimethyl-4-{1′-[(2R)-3,3,3-trifluoro-2-hydroxy-2-phenylpropanoyl]-4,4′-bipiperidin-1-yl}benzenesulfonamide] | 371 | 89 | 2050 | 29 |
| CNC(=O)c1ccc(N2CCC(C3CCN(C(=O)C(O)(C(C)C)C(F)(F)F)CC3)CC2)cc1Cl (stereo not drawn) [Example E-5, 2-chloro-4-{1′-[2-hydroxy-3-methyl-2-(trifluoromethyl)butanoyl]-4,4′-bipiperidin-1-yl}-N-methylbenzamide] | 111 | 123 | 1070 | 56 |
| C=C(C)CC(O)(C(=O)N1CCC(C2CCN(c3ccc(C(=O)N(C)C)c(Cl)c3)CC2)CC1)C(F)(F)F (stereo not drawn) [Example A-56, 2-chloro-4-{1′-[2-hydroxy-4-methyl-2-(trifluoromethyl)pent-4-enoyl]-4,4′-bipiperidin-1-yl}-N,N-dimethylbenzamide] | 64 | 120 | 1910 | 68 |
| CC(C)C(O)(C(=O)N1CCC(C2CCN(c3ccc(C(=O)N(C)C)c(Cl)n3)CC2)CC1)C(F)(F)F (stereo not drawn) [Example B-4, 2-chloro-6-{1′-[2-hydroxy-3-methyl-2-(trifluoromethyl)butanoyl]-4,4′-bipiperidin-1-yl}-N,N-dimethylpyridine-3-carboxamide] | 26 | 123 | 493 | 48 |
| C=C(C)C(O)(C(=O)N1CCC(C2CCN(c3ccc(C(=O)N(C)C)c(Cl)c3)CC2)CC1)C(F)(F)F (stereo not drawn) [Example A-31, 2-chloro-4-{1′-[2-hydroxy-3-methyl-2-(trifluoromethyl)but-3-enoyl]-4,4′-bipiperidin-1-yl}-N,N-dimethylbenzamide] | 61 | 86 | 362 | 27 |
| CN(C)C(=O)c1ccc(N2CCC(C3CCN(C(=O)C4(c5ccccc5)CCCC4)CC3)CC2)cc1Cl [Example A-40, 2-chloro-N,N-dimethyl-4-{1′-[(1-phenylcyclopentyl)carbonyl]-4,4′-bipiperidin-1-yl}benzamide] | 37 | 113 | 940 | 41 |
| CC(C)N(C(=O)c1ccc(N2CCC(C3CCN(C(=O)C(O)(C(C)C)C(F)(F)F)CC3)CC2)cc1Cl)C(C)C (stereo not drawn) [Example E-11, 2-chloro-4-{1′-[2-hydroxy-3-methyl-2-(trifluoromethyl)butanoyl]-4,4′-bipiperidin-1-yl}-N,N-bis(1-methylethyl)benzamide] | 156 | 33 | 1070 | 1 |
| O=C(c1ccc(N2CCC(C3CCN(C(=O)[C@](O)(c4ccccc4)C(F)(F)F)CC3)CC2)cc1Cl)N1CCC1CO (stereo partly drawn) [Example E-46, (2R)-3-[1′-(3-chloro-4-{[2-(hydroxymethyl)azetidin-1-yl]carbonyl}phenyl)-4,4′-bipiperidin-1-yl]-1,1,1-trifluoro-3-oxo-2-phenylpropan-2-ol] | 395 | 55 | 2250 | 27 |
| CN(C)C(=O)c1ccc(N2CCC(C3CCN(C(=O)C(O)(c4cccc(Cl)c4)C(F)(F)F)CC3)CC2)cc1Cl (stereo not drawn) [Example A-50, 2-chloro-4-{1′-[2-(3-chlorophenyl)-3,3,3-trifluoro-2-hydroxypropanoyl]-4,4′-bipiperidin-1-yl}-N,N-dimethylbenzamide] | 93 | 99 | 1010 | 20 |
| CN(C)C(=O)c1ccc(N2CCC(C3CCN(C(=O)C4(c5ccc(F)cc5)CCC4)CC3)CC2)cc1Cl [Example A-18, 2-chloro-4-(1′-{[1-(4-fluorophenyl)cyclobutyl]carbonyl}-4,4′-bipiperidin-1-yl)-N,N-dimethylbenzamide] | 207 | 81 | 4200 | 15 |
| CN(C)C(=O)c1ccc(N2CCC(C3CCN(C(=O)C(F)(F)c4cccc(F)c4)CC3)CC2)cc1Cl [Example A-69, 2-chloro-4-{1′-[difluoro(3-fluorophenyl)acetyl]-4,4′-bipiperidin-1-yl}-N,N-dimethylbenzamide] | 86 | 113 | 1770 | 51 |
